Where a SMILES comes first, the peptide text is derived from it. Bridges are numbered along the chain shown (N, C = ends). [ ]: non-standard residue; d: D form. Oic = O=C(O)[C@@H]1C[C@@H]2CCCC[C@@H]2N1; tBuAla = CC(C)(C)C[C@H](N)C(=O)O; PEG4 = NCCOCCOCCOCCOCCC(=O)O; Pen = CC(C)(S)[C@H](N)C(=O)O; Orn = NCCC[C@H](N)C(=O)O; Ahx = NCCCCCC(=O)O
Tests used:
[1] = target: human MASP2 (Homo sapiens (Human), UniProt O00187); test: Biochemical human MASP2 assay (FRET substrate); details: Average IC50; recombinant human MASP2; read-out: human MASP2 IC50
Source text: The MASP1 or MASP2 expression vectors were transfected into the HEK293 (ATCC No. CRL-1573) cell line using Lipofectamine LTX® Reagent (Thermo-Fischer), as described by the manufacturer. The mature form of the recombinant human MASP1 and M[…] were secreted into the culture medium. The MASP1 and M[…] were purified from the conditioned media by affinity chromatography on Ni-NTA Superflow resin (Qiagen) as described by the manufacturer. 2.3 Biochemical Human MASP2 Assay […] The enzymatic reaction was initiated by addition of 25 μl of 60 μM solution of the FRET substrate DABCYL-[…]; […] The microtiter plate was incubated for 60-120 min at the temperature of 32 C. The increase of fluorescence intensity was measured in appropriate fluorescence plate reader (e.g. TECAN Ultra) using excitation wavelength of 340 nm and emission wavelength of 490 nm. IC50 values were calculated from percentage of inhibition of human MASP2 activity as a function of test compound concentration.

[2] = target: human MASP1 (Homo sapiens (Human), UniProt P48740); test: Biochemical human MASP1 assay (FRET substrate); details: Average IC50; recombinant human MASP1; read-out: human MASP1 IC50
Source text: A truncated cDNA sequence of human MASP1 encoding the fragment corresponding to the amino acids 297-699 with a C-terminal His Tag and N-terminal Ig-kappa secretion signal (SEQ ID No: 2) was subcloned into the mammalian expression vector pcDNA3.1 (Invitrogen).
The MASP1 or MASP2 expression vectors were transfected into the HEK293 (ATCC No. CRL-1573) cell line using Lipofectamine LTX® Reagent (Thermo-Fischer), as described by the manufacturer. The mature form of the recombinant human MASP1 and MASP2 proteases were secreted into the culture medium. The MASP1 and MASP2 proteins were purified from the conditioned media by affinity chromatography on Ni-NTA Superflow resin (Qiagen) as described by the manufacturer.
2.2 Biochemical Human MASP1 Assay
Recombinant human MASP1 enzyme produced in the HEK 293 cells was diluted in the reaction buffer (50 mM HEPES pH 8,0; 100 mM NaCl; 0,01% CHAPS; 0.5 mM Gluthathione) to the concentration of 20 nM and 25 μl was transferred into each single well of 384-well white microtiter plate (Greiner Bio One 781075). 1 μl of the inhibitor compound solution (dissolved in DMSO, at the corresponding concentration) or pure DMSO as a control was added to the same wells. The enzymatic reaction was initiated by addition of 25 μl of 20 μM solution of the FRET substrate ABZ-[…]-Lys (Dnp)-NH2; (ABZ-2-aminobenzoyl; DNP 2,4-dinitrophenyl; custom synthesis by Jerini Peptide Technologies, Berlin) in the reaction buffer. The microtiter plate was incubated for 60-120 min at the temperature of 32 C. The increase of fluorescence intensity was measured in appropriate fluorescence plate reader (e.g. TECAN Ultra) using excitation wavelength of 320 nm and emission wavelength of 420 nm. IC50 values were calculated from percentage of inhibition of human MASP1 activity as a function of test compound concentration.

human MASP1, sequence (P48740 other isoform, or with tags, fused parts or gaps): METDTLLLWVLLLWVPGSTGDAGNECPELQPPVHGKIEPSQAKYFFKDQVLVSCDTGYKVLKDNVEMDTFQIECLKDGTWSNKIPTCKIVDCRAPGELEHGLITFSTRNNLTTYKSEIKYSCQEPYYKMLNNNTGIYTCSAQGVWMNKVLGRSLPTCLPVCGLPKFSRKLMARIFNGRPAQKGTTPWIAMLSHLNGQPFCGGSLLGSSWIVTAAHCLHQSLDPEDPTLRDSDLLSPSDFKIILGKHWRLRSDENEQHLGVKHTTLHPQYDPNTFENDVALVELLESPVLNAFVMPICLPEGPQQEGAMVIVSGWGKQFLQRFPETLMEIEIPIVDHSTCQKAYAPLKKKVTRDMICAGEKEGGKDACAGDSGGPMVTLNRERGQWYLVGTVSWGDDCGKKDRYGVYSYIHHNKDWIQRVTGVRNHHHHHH
human MASP2, sequence (O00187 other isoform, or with tags, fused parts or gaps): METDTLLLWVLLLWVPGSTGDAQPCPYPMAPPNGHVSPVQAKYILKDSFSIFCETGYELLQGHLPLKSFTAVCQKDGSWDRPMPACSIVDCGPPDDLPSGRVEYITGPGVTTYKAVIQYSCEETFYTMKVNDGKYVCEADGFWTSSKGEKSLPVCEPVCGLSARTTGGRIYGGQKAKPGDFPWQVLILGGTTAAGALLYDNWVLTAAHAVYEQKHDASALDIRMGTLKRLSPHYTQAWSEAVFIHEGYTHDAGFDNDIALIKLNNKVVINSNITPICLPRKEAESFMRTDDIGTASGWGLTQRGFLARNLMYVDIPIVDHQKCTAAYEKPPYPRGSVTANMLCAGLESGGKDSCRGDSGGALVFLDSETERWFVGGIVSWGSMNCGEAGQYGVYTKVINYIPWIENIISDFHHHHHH

IC50 [1] [µM]	IC50 [2] [µM]	Structure (SMILES)
0.19	0.0059	CC[C@H](C)[C@@H]1NC(=O)[C@H](C)NC(=O)CNC(=O)[C@H](C)NC(=O)C[C@@H](C(N)=O)NC(=O)[C@@H]2CCCN2C(=O)[C@H]([C@@H](C)CC)NC(=O)[C@H]2NC(=O)[C@H]([C@@H](C)CC)NC(=O)[C@@H]3C[C@@H]4CCCC[C@@H]4N3C(=O)[C@@H]3CCCN3C(=O)[C@H](CC(C)C)NC(=O)[C@H](CO)NC(=O)[C@H](CCCNC(=N)N)NC(=O)[C@H](CO)NC(=O)[C@H](CSSC2(C)C)NC1=O [Example 41] (AGAICSRSLP[Oic]I[Pen]IPD-NH2; disulfide 5-13; lactam N-16)
0.11	0.1	CC[C@H](C)[C@@H]1NC(=O)CCCCCNC(=O)[C@H]([C@@H](C)CC)NC(=O)[C@@H]2CSSC[C@H](NC1=O)C(=O)N[C@@H](CO)C(=O)N[C@@H](CCCNC(=N)N)C(=O)N[C@@H](CO)C(=O)N[C@@H](CC(C)C)C(=O)N1CCC[C@H]1C(=O)N1[C@@H](C[C@@H]3CCCC[C@@H]31)C(=O)N[C@@H]([C@@H](C)CC)C(=O)N2 [Example 95, N-{3-[(6S,9S,12S,15S,18R,21S,31S,34R,37S,39aS,40aS,44aS,46aS)-21,31,37-tri[(2S)-butan-2-yl]-9,15-bis(hydroxymethyl)-6-(2-methylpropyl)-5,8,11,14,17,20,23,30,33,36,39,46-dodecaoxohexatetracontahydro-1H,5H-18,34-(methanodithiomethano)pyrrolo[2′,1′:15,16][1,4,7,10,13,16,19,22,25,28,31,34]dodecaazacyclotetracontino[13,12-a]indol-12-yl]propyl}guanidine] (cyclo([Ahx]ICSRSLP[Oic]ICI); disulfide 3-11)
0.045	0.022	CC[C@H](C)[C@@H]1NC(=O)[C@@H](C)NC(=O)CCCCCNC(=O)CC[C@@H](C(N)=O)NC(=O)[C@@H]2CCCN2C(=O)[C@H]([C@@H](C)CC)NC(=O)[C@H]2NC(=O)[C@H]([C@@H](C)CC)NC(=O)[C@@H]3C[C@@H]4CCCC[C@@H]4N3C(=O)[C@@H]3CCCN3C(=O)[C@H](CC(C)C)NC(=O)[C@H](CO)NC(=O)[C@H](CCCNC(=N)N)NC(=O)[C@H](CO)NC(=O)[C@H](CSSC2(C)C)NC1=O [Example 79] ([Ahx][dA]ICSRSLP[Oic]I[Pen]IPE-NH2; disulfide 4-12; lactam N-15)
0.074	0.092	CC[C@H](C)[C@@H]1NC(=O)[C@H](C)NC(=O)CCCCCNC(=O)[C@H](CC(=O)O)NC(=O)[C@@H]2CCCN2C(=O)[C@H]([C@@H](C)CC)NC(=O)[C@@H]2CSSC[C@H](NC1=O)C(=O)N[C@@H](CO)C(=O)N[C@@H](CCCNC(=N)N)C(=O)N[C@@H](CO)C(=O)N[C@@H](CC(C)C)C(=O)N1CCC[C@H]1C(=O)N1CCC[C@H]1C(=O)N[C@@H]([C@@H](C)CC)C(=O)N2 [Example 45] (cyclo(AICSRSLPPICIPD[Ahx]); disulfide 3-11)
0.54	0.049	CC[C@H](C)[C@@H]1NC(=O)CNC(=O)[C@H](CCCN)NC(=O)[C@H]([C@@H](C)CC)NC(=O)[C@H]2NC(=O)[C@H]([C@@H](C)CC)NC(=O)[C@@H]3CCCN3C(=O)[C@@H]3CCCN3C(=O)[C@H](CC(C)(C)C)NC(=O)[C@H](CO)NC(=O)[C@H](CCCNC(=N)N)NC(=O)[C@H](CO)NC(=O)[C@H](CSSC2(C)C)NC1=O [Example 65, N-{3-[(5aS,11S,14S,17S,20S,23R,26S,32S,35S,38R,41S,43aS)-32-(3-aminopropyl)-26,35,41-tri[(2S)-butan-2-yl]-11-(2,2-dimethylpropyl)-14,20-bis(hydroxymethyl)-44,44-dimethyl-5,10,13,16,19,22,25,28,31,34,37,40,43-tridecaoxodotetracontahydro-5H-23,38-(methanodithiomethano)dipyrrolo[1,2-a:1′,2′-d][1,4,7,10,13,16,19,22,25,28,31,34,37]tridecaazacyclononatriacontin-17-yl]propyl}guanidine] (cyclo(CSRS[tBuAla]PPI[Pen]I[Orn]GI); disulfide 1-9)

The next lines start with the compound.

Structure (SMILES)	IC50 [1] [µM]	IC50 [2] [µM]
CC[C@H](C)[C@@H]1NC(=O)CNC(=O)CCOCCOCCOCCOCCNC(=O)[C@H](CC(=O)O)NC(=O)[C@@H]2CCCN2C(=O)[C@H]([C@@H](C)CC)NC(=O)[C@@H]2CSSC[C@H](NC1=O)C(=O)N[C@@H](CO)C(=O)N[C@@H](CCCNC(=N)N)C(=O)N[C@@H](CO)C(=O)N[C@@H](CC(C)C)C(=O)N1CCC[C@H]1C(=O)N1CCC[C@H]1C(=O)N[C@@H]([C@@H](C)CC)C(=O)N2 [Example 14] (cyclo(CIPD[PEG4]GICSRSLPPI); disulfide 1-8)	0.24	0.17
CC[C@H](C)[C@@H]1NC(=O)CNC(=O)[C@@H](N)CCC(=O)NCCCC[C@@H](C(N)=O)NC(=O)[C@H](CC(=O)O)NC(=O)[C@@H]2CCCN2C(=O)[C@H]([C@@H](C)CC)NC(=O)[C@H]2NC(=O)[C@H]([C@@H](C)CC)NC(=O)[C@@H]3C[C@@H]4CCCC[C@@H]4N3C(=O)[C@@H]3CCCN3C(=O)[C@H](CC(C)C)NC(=O)[C@H](CO)NC(=O)[C@H](CCCNC(=N)N)NC(=O)[C@H](CO)NC(=O)[C@H](CSSC2(C)C)NC1=O [Example 91] (H-EGICSRSLP[Oic]I[Pen]IPDK-NH2; lactam 1-16; disulfide 4-12)	0.071	0.029
CC[C@H](C)[C@@H]1NC(=O)[C@H](C)NC(=O)CCCCCNC(=O)CC[C@@H](C(N)=O)NC(=O)[C@@H]2CCCN2C(=O)[C@H]([C@@H](C)CC)NC(=O)[C@H]2NC(=O)[C@H]([C@@H](C)CC)NC(=O)[C@@H]3C[C@@H]4CCCC[C@@H]4N3C(=O)[C@@H]3CCCN3C(=O)[C@H](CC(C)C)NC(=O)[C@H](CO)NC(=O)[C@H](CCCNC(=N)N)NC(=O)[C@H](CO)NC(=O)[C@H](CSSC2(C)C)NC1=O [Example 74] ([Ahx]AICSRSLP[Oic]I[Pen]IPE-NH2; disulfide 4-12; lactam N-15)	0.16	0.014
CC[C@H](C)[C@@H]1NC(=O)CNC(=O)CNC(=O)[C@H](CC(=O)O)NC(=O)[C@@H]2CCCN2C(=O)[C@H]([C@@H](C)CC)NC(=O)[C@@H]2CSSC[C@H](NC1=O)C(=O)N[C@@H](CO)C(=O)N[C@@H](CCCNC(=N)N)C(=O)N[C@@H](CO)C(=O)N[C@@H](CC(C)C)C(=O)N1CCC[C@H]1C(=O)N1CCC[C@H]1C(=O)N[C@@H]([C@@H](C)CC)C(=O)N2 [Example 15, [(6S,9S,12S,15S,18R,21S,30S,32aS,38S,41R,44S,46aS,51aS)-21,38,44-tri[(2S)-butan-2-yl]-12-(3-carbamimidamidopropyl)-9,15-bis(hydroxymethyl)-6-(2-methylpropyl)-5,8,11,14,17,20,23,26,29,32,37,40,43,46,51-pentadecaoxopentacontahydro-1H-18,41-(methanodithiomethano)tripyrrolo[1,2-a:1′,2′-d:1″,2″-p][1,4,7,10,13,16, 19,22,25,28,31,34,37,40,43]pentadecaazacyclopentatetracontin-30-yl]acetic acid] (cyclo(CIPDGGICSRSLPPI); disulfide 1-8)	0.3	0.12
CC[C@H](C)[C@@H]1NC(=O)CNC(=O)CCCCCNC(=O)[C@@H](CC(=O)O)NC(=O)[C@@H]2CCCN2C(=O)[C@H]([C@@H](C)CC)NC(=O)[C@@H]2CSSC[C@H](NC1=O)C(=O)N[C@@H](CO)C(=O)N[C@@H](CCCNC(=N)N)C(=O)N[C@@H](CO)C(=O)N[C@@H](CC(C)C)C(=O)N1CCC[C@H]1C(=O)N1CCC[C@H]1C(=O)N[C@@H]([C@@H](C)CC)C(=O)N2 [Example 16, [(6S,9S,12S,15S,18R,21S,34R,36aS,42S,45R,48S,50aS,55aS)-21,42,48-tri[(2S)-butan-2-yl]-12-(3-carbamimidamidopropyl)-9,15-bis(hydroxymethyl)-6-(2-methylpropyl)-5,8,11,14,17,20,23,26,33,36,41,44,47,50,55-pentadecaoxotetrapentacontahydro-1H-18,45-(methanodithiomethano)tripyrrolo[2,1-f:2′,1′-r:2″,1″-u][1,4,7,10,13,16,19,22,25,28,31,34,37,40,43]pentadecaazacyclononatetracontin-34-yl]acetic acid] (cyclo([Ahx]GICSRSLPPICIP[dD]); disulfide 4-12)	0.37	0.15
